Results published in patent US4269834A, “Copper complexes of isoquinazolines” (priority 1977, dated 1981).
Values after ≈ are worked out from the molar mass of the structure shown. Like-named read-outs stand apart in the source and are kept apart here.

Tested on: Mycoplasma gallisepticum
Assay: Activity against Mycoplasma gallisepticum (minimum inhibiting concentration)
Assay type: cell-based
Settings: for MIC with Cu: media containing 50 μg/ml Cu^2+; for MIC: without added Cu; for MIC M. gall. with Cu: with Cu (50 μg/ml Cu^2+)
Description: The following tables show some activities--expressed as minimum inhibiting concentration (MIC)--of the prepared compounds against various micro-organisms. The compounds are identified by reference to the Example in which they are described. When more than one compound is mentioned in an Example, they are distinguished by a number between parentheses, corresponding to their order of occurrence, for instance: VI (2) refers to the second compound prepared according to Example VI. The term "with Cu" refers to tests conducted in media containing 50 μg/ml Cu^2+.
The activities of the following compounds, not mentioned in the Examples, were also measured.

[1] = Mycoplasmoides gallisepticum, Table I, read-out: MIC
[2] = Mycoplasmoides gallisepticum, Table IVb, read-out: MIC M. gall.

Row | Structure (SMILES) | MIC with Cu (Table I) [µg/mL] | MIC (Table I) [µg/mL] | other results
1 | Nc1nc(-c2ncc[nH]2)nc2ccccc12.Nc1nc(-c2ncc[nH]2)nc2ccccc12.O=[N+]([O-])[O-].O=[N+]([O-])[O-].[Cu+2] [XXb (3), Bis[4-amino-2-(1H-imidazole-2-yl)quinazoline]cupric nitrate] | 6 | 50 | –
2 | Cc1cccc2c(N)nc(-c3ccccn3)cc12 [VIIIb] | 0.2 | – | MIC [1]: 1.5 µg/mL (≈ 6.38 µM)
3 | Nc1nc(-c2ccccn2)cc2ccccc12.O=[N+]([O-])[O-].O=[N+]([O-])[O-].[Cu+2] [IVa, Mono[1-amino-3-(2-pyridyl)isoquinoline]cupric nitrate] | – | 1.5 | –
4 | CCc1ccc2cc(-c3ccccn3)nc(N)c2c1 [VIIIk] | 0.2 | – | –
5 | C=Cn1ccnc1-c1cc2ccccc2c(N)n1 [Example XVIIc, 1-amino-3-(1-ethenyl-1H-imidazole-2-yl) isoquinoline] | 0.2 | – | MIC [1]: > 100 µg/mL
6 | Cc1cccc(-c2cc3ccccc3cn2)n1 [XIc, 3-(6-methyl-2-pyridyl)isoquinoline] | 0.1 | – | –
7 | Nc1nc(-c2ccccn2)cc2ccc(Cl)cc12 [VIIIi] | 0.2 | – | –
8 | Clc1ccc2ccc3ccc(Cl)nc3c2n1.Clc1ccc2ccc3ccc(Cl)nc3c2n1.O=[N+]([O-])[O-].[Cu+] [IIe, Bis(2,9-dichloro-1,10-phenanthroline)cuprous nitrate] | – | 25 | –
9 | Nc1ccc2ccc3cccnc3c2n1 [F] | – | – | MIC [2]: 25 µg/mL (≈ 128 µM); MIC M. gall. with Cu (Table IVb): 0.8 µg/mL
10 | Nc1nc(-c2ncc[nH]2)cc2ccccc12.Nc1nc(-c2ncc[nH]2)cc2ccccc12.O=[N+]([O-])[O-].O=[N+]([O-])[O-].[Cu+2] [XIXb (3), Bis[1-amino-3-(1H-imidazole-2-yl)isoquinoline]cupric nitrate] | 3 | 50 | –
11 | Cn1ccnc1-c1cc2ccccc2c(N)n1.Cn1ccnc1-c1cc2ccccc2c(N)n1.O=[N+]([O-])[O-].O=[N+]([O-])[O-].[Cu+2] [XVb (3), Bis[1-amino-3-(1-methyl-1H-imidazole-2-yl)isoquinoline]cupric nitrate] | 1.5 | 12.5 | –
12 | Clc1ccc2nc(-c3ccccn3)ncc2c1 [C] | – | – | MIC M. gall. with Cu (Table IVb): 0.8 µg/mL
13 | Cc1cccc(-c2cc3ccccc3c(Cl)n2)n1 [XIb, 1-Chloro-3-(6-methyl-2-pyridyl)isoquinoline] | 1 | – | –
14 | Nc1nc(-c2ncc[nH]2)nc2ccccc12.O=[N+]([O-])[O-].O=[N+]([O-])[O-].[Cu+2] [XXb (2), Mono[4-amino-2-(1H-imidazole-2-yl)quinazoline]cupric nitrate] | 1.5 | 25 | –
15 | Cn1ccnc1-c1cc2ccccc2c(N)n1.Cn1ccnc1-c1cc2ccccc2c(N)n1.O=[N+]([O-])[O-].[Cu+] [XVb (1), Bis[1-amino-3-(1-methyl-1H-imidazole-2-yl)isoquinoline]cuprous nitrate] | 0.8 | 12.5 | –
16 | C=Cn1ccnc1-c1nc(N)c2ccccc2n1 [Example XVIIIa, 4-amino-2-(1-ethenyl-1H-imidazole-2-yl)quinazoline] | 0.2 | – | MIC [1]: > 100 µg/mL
17 | Nc1nc(-c2ccccn2)cc2c(Cl)cccc12.O=[N+]([O-])[O-].O=[N+]([O-])[O-].[Cu+2] [IVb, Mono[1-amino-5-chloro-3-(2-pyridyl)isoquinoline]cupric nitrate] | – | 0.8 | –
18 | Cc1cccc(-c2cc3ccccc3c(N)n2)n1.O=[N+]([O-])[O-].O=[N+]([O-])[O-].[Cu+2] [IVc, Mono[1-amino-3-(6-methyl-2-pyridyl)isoquinoline]cupric nitrate] | – | 0.8 | –
19 | Cl.Nc1nc(-c2ccccn2)cc2cc(Cl)ccc12 [Example VII, 1-amino-6-chloro-3-(2-pyridyl)isoquinoline hydrochloride] | 0.4 | – | –
20 | Cl.Cl.Nc1nc(-c2ncc[nH]2)nc2ccccc12 [XXa, 4-amino-2(1H-imidazole-2-yl)quinazoline dihydrochloride] | 3 | – | MIC [1]: > 100 µg/mL
21 | Cc1ccc2cc(-c3ccccn3)nc(N)c2c1 [VIIId] | 0.2 | – | MIC [1]: 1.5 µg/mL (≈ 6.38 µM)
22 | c1ccc(-c2nc(-c3ccccn3)cc3ccccc23)cc1 [XIVb, 1-phenyl-3-(2-pyridyl)isoquinoline] | 0.2 | – | –
23 | Cn1ccnc1-c1nc(N)c2ccccc2n1.O=[N+]([O-])[O-].O=[N+]([O-])[O-].[Cu+2] [XVIb (2), Mono[4-amino-2-(1-methyl-1H-imidazole-2-yl)quinazoline]cupric nitrate] | 0.4 | 6 | –

Row | Structure (SMILES) | MIC with Cu (Table I) [µg/mL] | MIC (Table I) [µg/mL] | other results
24 | Nc1nc(-c2ccccn2)cc2ccccc12.Nc1nc(-c2ccccn2)cc2ccccc12.O=[N+]([O-])[O-].O=[N+]([O-])[O-].[Cu+2] [Example V, bis[1-amino-3-(2-pyridyl)isoquinoline]cupric nitrate] | – | 3 | –
25 | Nc1nc(-c2ccccn2)cc2cccc(Cl)c12 [VIIIj] | 0.2 | – | MIC [1]: 100 µg/mL (≈ 391 µM)
26 | Cc1ccc2cc(-c3ccccn3)nc(N)c2c1.Cc1ccc2cc(-c3ccccn3)nc(N)c2c1.O=[N+]([O-])[O-].[Cu+] [IIb, Bis[1-amino-7-methyl-3-(2-pyridyl)isoquinoline]cuprous nitrate] | – | 6 | –
27 | Cl.Nc1nc(-c2ccccn2)cc2cc(Br)ccc12 [Example X, 1-Amino-6-bromo-3-(2-pyridyl)isoquinoline hydrochloride] | 0.4 | – | –
28 | Nc1ccc2ccc3ccc(N)nc3c2n1 [E] | – | – | MIC [2]: 50 µg/mL (≈ 238 µM); MIC M. gall. with Cu (Table IVb): 0.8 µg/mL
29 | Cn1ccnc1-c1nc(N)c2ccccc2n1 [XVIa, 4-amino-2-(1-methyl-1H-imidazole-2-yl)quinazoline] | 0.2 | – | MIC [1]: 25 µg/mL (≈ 111 µM)
30 | C=Cn1ccnc1-c1nc(N)c2ccccc2n1.C=Cn1ccnc1-c1nc(N)c2ccccc2n1.O=[N+]([O-])[O-].[Cu+] [XVIIIb (1), Bis[4-amino-2-(1-ethenyl-1H-imidazole-2-yl)quinazoline]cuprous nitrate] | 0.2 | 12.5 | –
31 | c1ccc(-c2ncc3ccccc3n2)nc1 [B] | – | – | MIC M. gall. with Cu (Table IVb): 0.5 µg/mL
32 | C=Cn1ccnc1-c1nc(N)c2ccccc2n1.O=[N+]([O-])[O-].O=[N+]([O-])[O-].[Cu+2] [XVIIIb (2), Mono[4-amino-2-(1-ethenyl-1H-imidazole-2-yl)quinazoline]cupric nitrate] | 0.2 | 6 | –
33 | Nc1nc(-c2ccccn2)cc2c(Cl)cccc12.Nc1nc(-c2ccccn2)cc2c(Cl)cccc12.O=[N+]([O-])[O-].[Cu+] [IIa, Bis[1-amino-5-chloro-3-(2-pyridyl)isoquinoline]cuprous nitrate] | – | 1.5 | –
34 | COc1ccc2ccc3cccnc3c2n1 [G] | – | – | MIC [2]: > 100 µg/mL; MIC M. gall. with Cu (Table IVb): 3 µg/mL
35 | Cn1ccnc1-c1nc(N)c2ccccc2n1.Cn1ccnc1-c1nc(N)c2ccccc2n1.O=[N+]([O-])[O-].[Cu+] [XVIb (1), Bis[4-amino-2-(1-methyl-1H-imidazole-2-yl)quinazoline]cuprous nitrate] | 0.2 | 6 | –
36 | Cc1ccc2c(N)nc(-c3ccccn3)cc2c1 [VIIIc] | 0.4 | – | MIC [1]: 3 µg/mL (≈ 12.8 µM)
37 | COc1cc2cc(-c3ccccn3)nc(N)c2cc1OC [VIIIa] | 12.5 | – | MIC [1]: 100 µg/mL (≈ 355 µM)
38 | CCCc1nc(-c2ccccn2)cc2ccccc12.Cl [XIIIf, 1-propyl-3-(2-pyridyl)isoquinoline hydrochloride] | 0.03 | – | –
39 | Nc1nc(-c2ncc[nH]2)cc2ccccc12.O=[N+]([O-])[O-].O=[N+]([O-])[O-].[Cu+2] [XIXb (2), Mono[1-amino-3-(1H-imidazole-2-yl)isoquinoline]cupric nitrate] | 3 | 50 | –
40 | C=Cn1ccnc1-c1nc(N)c2ccccc2n1.C=Cn1ccnc1-c1nc(N)c2ccccc2n1.O=[N+]([O-])[O-].O=[N+]([O-])[O-].[Cu+2] [XVIIIb (3), Bis[4-amino-2-(1-ethenyl-1H-imidazole-2-yl)quinazoline]cupric nitrate] | 0.2 | 12.5 | –
41 | O=[N+]([O-])[O-].[Cu+].c1cnc2c(c1)ccc1cccnc12.c1cnc2c(c1)ccc1cccnc12 [IId, Bis(1,10-phenanthroline)cuprous nitrate] | 25 | 12.5 | –
42 | C=Cn1ccnc1-c1cc2ccccc2c(N)n1.C=Cn1ccnc1-c1cc2ccccc2c(N)n1.O=[N+]([O-])[O-].[Cu+] [XVIId (1), Bis[1-amino-3-(1-ethenyl-1H-imidazole-2-yl)isoquinoline]cuprous nitrate] | 0.2 | 25 | –
43 | C=Cn1ccnc1-c1cc2ccccc2c(N)n1.O=[N+]([O-])[O-].O=[N+]([O-])[O-].[Cu+2] [XVIId (2), Mono[1-amino-3-(1-ethenyl-1H-imidazole-2-yl)isoquinoline]cupric nitrate] | 0.2 | 12.5 | –
44 | Cn1ccnc1-c1cc2ccccc2c(N)n1 [XVa, 1-amino-3-(1-methyl-1H-imidazole-2-yl)isoquinoline] | 1.5 | – | MIC [1]: > 100 µg/mL
45 | Nc1nc(-c2ccccn2)cc2ccc(I)cc12 [VIIIl] | 0.2 | – | –
46 | Nc1nc(-c2ccccn2)cc2ccccc12.Nc1nc(-c2ccccn2)cc2ccccc12.O=[N+]([O-])[O-].[Cu+] [IIc, Bis[1-amino-3-(2-pyridyl)isoquinoline]cuprous nitrate] | 0.4 | 3 | –
